Experimental data taken from PMC7751175, “Lateral Gene Transfer Acts As an Evolutionary Shortcut to Efficient C4 Biochemistry” (Molecular Biology and Evolution, 2020).

Key:
Experiment in all cases: malate dehydrogenase-coupled NADH oxidation at […] nm; nonlinear regression
Conditions in all cases: co-substrate bicarbonate, 5 mM MgCl2, 50 mM Tris-HCl pH 7.4, 25 °C; read-out: KM(PEP)
[1] = test system: isoform 2, native co-opted ppc-1P6 PEPC (TPE1-10); assay type: biochemical, Alloteropsis semialata
[2] = test system: isoform 11, ppc-1P3_LGT:A PEPC (AUS1-01); assay type: biochemical, Alloteropsis semialata
[3] = test system: isoform 6, native co-opted ppc-1P3 PEPC (AANG4-8); assay type: biochemical, Alloteropsis angusta
[4] = test system: isoform 5, native co-opted ppc-1P3 PEPC (MAD1-03); assay type: biochemical, Alloteropsis semialata
[5] = test system: isoform 1, non-C4 ppc-1P6 PEPC (RSA5-03); assay type: biochemical, Alloteropsis semialata
[6] = test system: isoform 12, Donor_C ppc-1P3_C PEPC; assay type: biochemical, Setaria barbata
[7] = test system: isoform 8, ppc-1P3_LGT:M PEPC (A. cimicina); assay type: biochemical, Alloteropsis cimicina
[8] = test system: isoform 10, Donor_A ppc-1P3_A PEPC; assay type: biochemical, Themeda triandra
[9] = test system: isoform 7, Donor_M ppc-1P3_M PEPC; assay type: biochemical, Megathyrsus maximus

For `C=C(OP(=O)(O)O)C(=O)O` [PEP], the Km [1] was 196 ± 12.9 µM, the Km [2] was 699 ± 50.4 µM and the Km [3] was 324 ± 23.3 µM. The Km [4] was 188 ± 12.5 µM, the Km [5] was 319 ± 33.5 µM and the Km [6] was 612 ± 55.9 µM. It also gave a Km [7] of 710 ± 47.2 µM, a Km [8] of 687 ± 72.8 µM and a Km [9] of 921 ± 99.1 µM.
